Results taken from publication PMC8310591, “Production of trans-cinnamic acid by whole-cell bioconversion from L-phenylalanine in engineered Corynebacterium glutamicum” (Microbial Cell Factories, 2021).

Target: T1, SmPAL (Streptomyces maritimus, UniProt Q9KHJ9)
T1 construct: gene encP; native gene amplified from pHB-104, expressed from pHCMS-SmPAL (PH36 promoter) in Corynebacterium glutamicum ATCC 13032; 56 kDa; no tag mentioned; whole cells, not purified
T1 sequence (Q9KHJ9 1-523): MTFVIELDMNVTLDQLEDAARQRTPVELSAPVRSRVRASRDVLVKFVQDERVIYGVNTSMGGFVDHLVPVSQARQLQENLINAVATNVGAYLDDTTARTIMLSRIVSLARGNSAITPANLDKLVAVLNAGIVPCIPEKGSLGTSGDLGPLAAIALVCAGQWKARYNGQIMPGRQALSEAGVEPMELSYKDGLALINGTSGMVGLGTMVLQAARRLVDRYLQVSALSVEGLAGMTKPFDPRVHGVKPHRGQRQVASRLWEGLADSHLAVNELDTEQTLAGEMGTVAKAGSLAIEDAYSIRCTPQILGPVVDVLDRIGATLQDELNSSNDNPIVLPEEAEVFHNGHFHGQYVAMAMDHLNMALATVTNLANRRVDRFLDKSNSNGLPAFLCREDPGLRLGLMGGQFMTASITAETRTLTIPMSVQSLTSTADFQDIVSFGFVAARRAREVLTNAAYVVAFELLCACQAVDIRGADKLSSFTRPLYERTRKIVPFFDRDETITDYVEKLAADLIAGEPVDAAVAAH
Experiment: whole-cell bioconversion, HPLC of L-Phe and t-CA
Format: cell-based
Conditions: C. glutamicum harboring pHCMS-SmPAL; 18.2 mM L-Phe; 100 mM Tris-HCl pH 7.5; 30 °C; product trans-cinnamic acid

## N[C@@H](Cc1ccccc1)C(=O)O [L-phenylalanine]
  whole-cell bioconversion, HPLC of L-Phe and t-CA: the bioconversion of L-Phe to t-CA was immediately observed
